This is an account of results in ChEMBL document CHEMBL1201862, “PubChem BioAssay data set” (2004).

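Assay format: 96-well plates, 48-hour exposure. GI50 marks 50% less growth.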 The source made the active and inactive calls. Rule as the data show it: active = GI50 up to about 1.1 µM and inactive = higher.

Test systems include SNB-19; OVCAR-8; UACC-62; SR; T47D; UO-31; SK-MEL-5; IGROV-1; SN12C; SW-620; SK-OV-3; SF-295; M14; NCI-H460; A549; RPMI-8226; ACHN; KM12; K562; HCC 2998.
What all share (experiment): inhibition of tumour cell growth, NCI panel, 48 h

Regarding `CCCCCCCCCCCCCCCCCCN(C)C(COC)COP(=O)([O-])OCC[N+](C)(C)C` (stereo not given), the GI50 was 3.61 µM (inactive) in the assay with SNB-19; 11.8 µM (inactive) in the assay on OVCAR-8; 5.16 µM (inactive) in the assay with UACC-62; 2.23 µM (inactive) in the assay on SR; 18.4 µM (inactive) with T47D; 16 µM (inactive) in the assay on UO-31. Further, the GI50 in the assay with SK-MEL-5 is 12.9 µM (inactive); with IGROV-1, 1.3 µM (inactive); in the assay with SN12C, 4.23 µM (inactive); with SW-620 it was 6.47 µM (inactive); in the assay with SK-OV-3 it was 11.2 µM (inactive); in the assay with SF-295 it was 2.56 µM (inactive). The GI50 was 3.46 µM (inactive) in the assay with M14; 1.78 µM (inactive) in the assay with NCI-H460; 6.68 µM (inactive) in the assay on A549; 1.83 µM (inactive) with RPMI-8226; 11.9 µM (inactive) with ACHN; 1.66 µM (inactive) with KM12. Further, the figures for the GI50 in the assay on K562 and with HCC 2998 were 11.8 µM (inactive) and 1.66 µM (inactive), respectively.
As to `CSC1=NN=C(SC)NN1`, the GI50 was 0.191 µM (active) in the assay with SNB-19; 0.285 µM (active) with OVCAR-8; 0.148 µM (active) in the assay with UACC-62; 0.0204 µM (active) in the assay on SR; 0.142 µM (active) in the assay on T47D; 0.188 µM (active) with UO-31. Also, the GI50 with SK-MEL-5 is 0.182 µM (active); in the assay on IGROV-1, 0.166 µM (active); in the assay on SN12C, 0.18 µM (active); in the assay with SW-620, 0.17 µM (active); in the assay on SK-OV-3 it was 0.186 µM (active); with SF-295, 0.198 µM (active). Further, the GI50 in the assay on M14 is 0.184 µM (active); in the assay on NCI-H460 it was 0.196 µM (active); in the assay on A549, 0.204 µM (active); in the assay with RPMI-8226 it was 0.261 µM (active); with ACHN it was 0.168 µM (active); in the assay on KM12, 0.192 µM (active). Besides, the GI50 in the assay on K562 was 0.117 µM (active); with HCC 2998 it was 0.378 µM (active).
As to `NS(=O)(=O)c1ccc2c(c1)OCCOCCOCCOCCO2`, the GI50 in the assay with SNB-19, with OVCAR-8, in the assay on UACC-62, in the assay on SR, in the assay with T47D and in the assay on UO-31 was > 100 µM (inactive) in each case. Besides, the GI50 in the assay on SK-MEL-5, in the assay on IGROV-1, in the assay on SN12C, with SW-620, in the assay with SK-OV-3 and in the assay on SF-295 was > 100 µM (inactive) in each case. In addition, the GI50 in the assay on M14, in the assay with NCI-H460, with A549, with RPMI-8226, in the assay on ACHN and in the assay on KM12 was > 100 µM (inactive) throughout. The GI50 in the assay with K562 and with HCC 2998 was > 100 µM (inactive) each time.
In the case of `O=C(O)CCC(C(=O)O)N1C(=O)c2ccccc2C1=O` (stereo not given), the GI50 in the assay with SNB-19, with OVCAR-8, with UACC-62, in the assay with SR, with T47D and in the assay on UO-31 was > 100 µM (inactive) each time. For the same compound, the GI50 in the assay on SK-MEL-5, in the assay with IGROV-1, in the assay on SN12C, with SW-620, with SK-OV-3 and in the assay on SF-295 was > 100 µM (inactive) in each case. Moreover, the GI50 with M14, in the assay on NCI-H460, in the assay with A549, in the assay with RPMI-8226, with ACHN and in the assay with KM12 was > 100 µM (inactive) throughout. Moreover, the GI50 with K562 and with HCC 2998 was > 100 µM (inactive) throughout.
For the compound `COc1ccc(N2C(=O)C3c4[nH]c5cccc(Cl)c5c4C4CCC(C(C)(C)C)CC4C3C2=O)cc1` (stereo not given), the GI50 with SNB-19 was 41.5 µM (inactive); in the assay with OVCAR-8, 84.3 µM (inactive); in the assay with UACC-62, > 100 µM (inactive); in the assay on SR it was 8.47 µM (inactive); with T47D, > 100 µM (inactive); with UO-31 it was > 100 µM (inactive). In addition, the GI50 in the assay on SK-MEL-5 is > 100 µM (inactive); in the assay on IGROV-1, > 100 µM (inactive); with SN12C, > 100 µM (inactive); in the assay with SW-620 it was > 100 µM (inactive); in the assay on SK-OV-3 it was 64.9 µM (inactive); in the assay with SF-295, 47.2 µM (inactive). The GI50 with M14, with NCI-H460, in the assay with A549, in the assay on RPMI-8226, in the assay with ACHN and in the assay with KM12 was > 100 µM (inactive) throughout. The GI50 in the assay on K562 and with HCC 2998 was > 100 µM (inactive) throughout.
